Test results published in patent publication US6291515A, “Use of efomycins” (Bayer Aktiengesellschaft, priority 1996, dated 2001).

How the values were obtained:
Assay type in all cases: cell-based
[1] = tested on: adhesion of pig PMNL to hypoxia-stimulated pig aorta; test: Inhibition of PMNL adhesion to hypoxia-stimulated pig aortas, pig PMNL; conditions: for % adherent PMNL, Pig PMNL: hypoxia-stimulated pig aorta, proportion of adherent PMNL vs control (=100), 90-minute coincubation at 37° C., MPO readout
Experimental: (§1) Freshly isolated pig aortas were brought into the laboratory from the local slaughterhouse in oxygen-aerated, phosphate-buffered saline solution (PBS). Freshly obtained pig or human blood was taken for the preparation of polymorphonuclear neutrophilic granulocytes (PMNL). The aortas were stimulated by placing them for 30 minutes in PBS which was aerated with nitrogen (hypoxia stimulus). The aorta were then fixed between a Teflon block (below) and a specially made steel plate (above) with drilled wells (similar to a microtiter plate). PMNL and the potential adhesion inhibitors were added to the luminal side, i.e. to the stimulated endothelial cell layer, in cell media (M199, Gibco). After a 90-minute coincubation at 37° C. in an incubator, the wells were washed. The remaining adherent PMNL were lysed. The activity of the PMNL-specific myeloperoxidase (MPO) in the lysate was determined photometrically and compared to the untreated control (only solvent). […] The proportion of the adherent PMNL in comparison with the control is indicated.
(§2) Inhibition of the adhesion of pig PMNL or human PMNL to hypoxia-stimulated pig aorta by efomycins

[2] = tested on: cultured endothelial cells; test: MTT test for cytotoxicity on endothelial cells; conditions: at efficacious concentrations
[3] = tested on: adhesion of human PMNL to hypoxia-stimulated pig aorta; test: Inhibition of PMNL adhesion to hypoxia-stimulated pig aortas, human PMNL; conditions: proportion of adherent PMNL vs control (=100), 90-minute coincubation at 37° C., MPO readout
Experimental: as §1, §2

[4] = tested on: adhesion of PMNL to albumin-coated plastic surfaces; test: Adhesion of PMNL to albumin-coated plastic surfaces; conditions: test described in EP 0 461 499 A2 (Use Example 1)
Excerpt: The adhesion test to albumin-coated plastic surfaces is described in detail, inter alia, in EP 0 461 499 A2 (Use Example 1).

## CC[C@@H](/C=C/C(=O)[C@@H](C)[C@H](O)[C@H](C)[C@H]1OC(=O)/C=C/C=C/[C@H](C)[C@@H]([C@@H](C)[C@@H](O)[C@H](C)C(=O)/C=C/[C@H](CC)[C@@H](C)O)OC(=O)/C=C/C=C/[C@@H]1C)[C@@H](C)O [Ex. No. 1]
[1]; PMNL species not given
  activity in the test model described (PMNL adhesion to hypoxia-stimulated pig aorta), in words: active
[1]
  % adherent PMNL, Pig PMNL: 33 ± 23%
[2]
  cytotoxicity against endothelial cells in the MTT test: no cytotoxicity
[3]
  % adherent PMNL, Human PMNL: 52 ± 2%
[4]
  inhibition of adhesion of PMNL to albumin-coated plastic surfaces: does not inhibit

## CC[C@@H](/C=C/C(=O)[C@@H](C)[C@H](OC(C)=O)[C@H](C)[C@H]1OC(=O)/C=C/C=C/[C@H](C)[C@@H]([C@@H](C)[C@@H](OC(C)=O)[C@H](C)C(=O)/C=C/[C@H](CC)[C@@H](C)OC(C)=O)OC(=O)/C=C/C=C/[C@@H]1C)[C@@H](C)OC(C)=O [Ex. No. 2]
[1]
  % adherent PMNL, Pig PMNL: 85 ± 11%
[3]
  % adherent PMNL, Human PMNL: 90 ± 5%
